From patent publication US20230364032A1, “USE OF 2-HOBA TO TREAT ATHEROSCLEROSIS” (Vanderbilt University, priority 2020, published 2023)

What was measured:
[1] = tested on: peritoneal macrophages; test: Macrophage cytokine mRNA by real time PCR (oxidized LDL or H2O2); assay type: cell-based, mouse
Protocol: […] Apoptotic cells were then detected by Annexin V staining and flow cytometry. […] (6A to 6H) Data are presented as mean±SEM from three independent experiments, ***p<0.001, One-way ANOVA with Bonferroni's post hoc test.
Total RNA was isolated and purified, cDNA was synthesized, and the mRNA levels of IL-1β, IL-6 and TNF-α were measured by real-time PCR. The data are from three independent experiments. *p<0.05, **p<0.01, ***p<0.001, One-way ANOVA (Bonferroni's post hoc test).
Total RNA was extracted and purified using Aurum Total RNA kit (Bio-Rad) according to the manufacturer's protocol. Complementary DNA was synthesized with iScript reverse transcriptase (Bio-Rad). Relative quantitation of the target mRNA was performed using specific primers, SYBR probe (Bio-Rad), and iTaqDNA polymerase (Bio-Rad) on IQ5 Thermocylcer (Bio-Rad) and normalized with 18S, as described earlier. 18S, IL-1[…] and TNF-[…] primers used were as described earlier^67.

[2] = tested on: MDA-HDL; test: MDA adducts in isolated HDL by ELISA; assay type: in vivo, mouse; conditions: Ldlr−/− mice
Protocol: FIGS. 7A-7G show the effects of 2-HOBA on MDA-HDL adducts and HDL function. (7A) The levels or MDA adducts were measured by ELISA in HDL isolated from Ldlr mice treated as described in FIG. 1. Data are presented as mean±SEM (N=8 pet group), *** p<0.001, One-way ANOVA with Bonferroni's post hoc test. (7B) Western blots of apoAl and MDA-apoAl in HDL isolated from plasma by immunoprecipitation using primary anti-apoAl antibody. Ldlf mice were treated as described In FIG. 1 and apoAl and MDA-apoAl from Ldlr mice consuming a chow diet are included f0t comparison. (7C) Quantitation using lmageJ software of the mean density ratio (arbitrary units) of MDA-apoAl to apoAl detected by Western blotting (7B). (7D The HDL was isolated from the plasma of Ld/r-mice consuming a western diet for 16 weeks and treated with 2-HOBA or 4-HOBA or vehicle. Cholesterol enriched macrophages were incubated for 24 h with HDL (25 μg protein/ml). and the % reduction in cellular cholesterol content measured. Data presented as mean±SEM. N=7 per group, *p<0.05.**p<0.01, One-way ANOVA with Bonferroni's post hoc test (7E) The MDA adducts were measured by ELISA in HDL isolated from control or FH subjects before and after LDL apheresis. N=7 or 8, ***p<0.001, One-way ANOVA with Bonferroni's post hoc test. (7F) The MDA-Lysyl crosslink content in HDL from control or FH subjects (n=6 per group), p=0.02, Mann-Whitney test (7G) The capacity of HDL from control or FH subjects pre and post LDL apheresis (n=7 per group) to reduce the cholesterol content of apoE macrophages.
The study was approved by the Vanderbilt University Institutional Review Board (IRB), and all participants gave their written informed consent. The human blood samples from patients with severe FH, who were undergoing LDL apheresis, and healthy controls were obtained using an IRB approved protocol. […] After stopping the reaction, the O.D. was measured at 450 nm wavelength. MDA-ApoAI was detected in mouse plasma by immunoprecipitation of ApoAI and western blotting. […] Proteins were visualized and quantitated by Odyssey 3.0 Quantification software (LI-COR).

[3] = tested on: MDA; test: Plasma MDA content by TBARS assay; assay type: in vivo, mouse; conditions: Ldlr−/− mice, western diet 16 weeks; versus 4-HOBA or vehicle
Protocol: FIG. 21A-D show the effects of 2-HOBA on plasma and LDL MDA adducts in hypercholesterolemic Ldlr^−/− mice. (20A) The MDA content in plasma from Ldlr^−/− mice consuming a Western diet for 16 weeks and treated with 2-HOBA, 4-HOBA, or vehicle was measured by TBARS Assay(*p<0.05, **p<0.01). (20B) The levels of MDA adducts were measured from LDL isolated from the Ldlr^−/− mice by ELISA. N=10 per group, ***p<0.001. (20C) LDL was isolated from control and FH subjects (n=6) pre and post LDL apheresis and the MDA adduct content was measured by ELISA. (20D) LDL was isolated from 2-HOBA, 4-HOBA, or vehicle treated hypercholesterolemic Ldlr^−/− mice. WT peritoneal macrophages were incubated for 24 hrs with the LDL and the cellular cholesterol content was measured as described in methods. (20A-D) One-way ANOVA with Bonferroni's post hoc test).

NCc1ccccc1O [2-HOBA, 2-hydroxybenzylamine]
levels of IL-1β, IL-6, and TNF-α mRNA ([1]; 500 μM 2-HOBA in the presence of H2O2 (100 μM, 24 hours)): significantly reduced
macrophage inflammatory response: mRNA levels of IL-1β, IL-6, and TNF-α ([1]; oxidized LDL, 24 h, 500 μM): significantly reduced
MDA content in HDL [2]: reduced
reduction of MDA adduct content of isolated HDL (ELISA) ([2]; compared to 4-HOBA): 56%
reduction of MDA adduct content of isolated HDL (ELISA) ([2]; compared to vehicle): 57%
plasma levels of MDA [3]: decreased
